By IC50 is commonly meant the concentration needed to halve the response being measured.

From US10759783B2, “Biaryl inhibitors of Bruton'S tyrosine kinase” (BIOGEN MA INC., priority 2013, dated 2020) come the findings set out here.

The target in test [1] is BTK (phospho-BTK) in human whole blood (Homo sapiens, UniProt Q06187). The experiment in a line: In vitro PD assay in human whole blood (pBTK assay).
The target of test [2] is T1, BTK enzyme (Homo sapiens, UniProt Q06187).
T1 construct: purchased Upstate 14-552
T1 sequence (Q06187 whole entry): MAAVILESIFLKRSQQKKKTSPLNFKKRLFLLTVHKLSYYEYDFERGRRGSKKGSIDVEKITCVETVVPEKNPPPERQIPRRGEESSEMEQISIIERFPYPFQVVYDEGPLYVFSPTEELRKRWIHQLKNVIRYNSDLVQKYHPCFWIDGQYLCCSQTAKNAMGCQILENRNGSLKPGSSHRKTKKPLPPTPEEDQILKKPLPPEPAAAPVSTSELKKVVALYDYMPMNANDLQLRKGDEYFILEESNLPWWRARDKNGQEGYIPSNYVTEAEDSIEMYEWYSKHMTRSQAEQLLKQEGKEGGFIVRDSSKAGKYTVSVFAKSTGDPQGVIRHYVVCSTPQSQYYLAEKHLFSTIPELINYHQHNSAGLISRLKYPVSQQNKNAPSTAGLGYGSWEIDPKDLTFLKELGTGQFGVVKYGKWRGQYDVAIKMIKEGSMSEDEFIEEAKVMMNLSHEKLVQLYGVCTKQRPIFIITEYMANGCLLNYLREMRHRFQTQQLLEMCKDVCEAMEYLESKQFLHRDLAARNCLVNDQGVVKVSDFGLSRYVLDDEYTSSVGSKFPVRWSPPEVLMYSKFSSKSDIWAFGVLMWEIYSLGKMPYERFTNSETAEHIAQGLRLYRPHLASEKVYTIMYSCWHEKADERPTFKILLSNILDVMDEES
In words: In vitro BTK kinase assay: BTK-POLYGAT-LS assay. Type of test: biochemical. The settings on record: ATP 10 μM, read-out: IC50 (10uMATP). The gist of the method:
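Human BTK activity was measured with final 10 μM ATP and 100 nM polyGAT substrate in pH 7.5 Tris buffer with 10 mM MgCl2, DTT, Triton X-100 and casein.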

Chain of BTK (phospho-BTK) in human whole blood (Q06187 whole entry): as above

As to `Cc1cc(-c2ccnc(N)n2)ccc1CNC(=O)c1cnc(C(C)(C)C)s1` [Example I-135, N-(4-(2-aminopyrimidin-4-yl)-2-methylbenzyl)-2-(tert-butyl)thiazole-5-carboxamide], the IC50 in test [1] is 1500 to 10000 nM; in test [2] it was < 10 nM. For `Cc1cc(-c2cc(Nc3cc4n(n3)CCOC4)ncn2)ccc1CNC(=O)c1cnn(C(C)(C)C)c1` [Example I-237, 1-(tert-butyl)-N-(4-(6-((6,7-dihydro-4H-pyrazolo[5,1-c][1,4]oxazin-2-yl)amino)pyrimidin-4-yl)-2-methylbenzyl)-1H-pyrazole-4-carboxamide], in that order: < 500 nM and < 10 nM.

Turning to `Cc1cc(-c2cc(Nc3cc4n(n3)CC(C)N(C)C4)ncn2)ccc1CNC(=O)c1cnn(C(C)(C)C)c1` (stereo not shown) [Example I-280, 1-tert-butyl-N-[[4-[6-[(5,6-dimethyl-6,7-dihydro-4H-pyrazolo[1,5-a]pyrazin-2-yl)amino]pyrimidin-4-yl]-2-methyl-phenyl]methyl]pyrazole-4-carboxamide], the IC50 in test [1] was < 500 nM; in test [2], < 10 nM. On the same counts, the results for `CC(C)C1CCN(C(=O)NC2CCCCc3cc(-c4ccnc(Nc5cnn([C@H]6CCOC6)c5)n4)ccc32)C1` (stereo partly drawn) [Example I-345, 3-isopropyl-N-[2-[2-[[1-[(3S)-tetrahydrofuran-3-yl]pyrazol-4-yl]amino]pyrimidin-4-yl]-6,7,8,9-tetrahydro-5H-benzo[7]annulen-5-yl]pyrrolidine-1-carboxamide] are < 500 nM and < 10 nM. Regarding `CN1CC(n2cc(Nc3nccc(-c4ccc(CNC(=O)N5CCC(C(C)(C)C)C5)c(C(F)(F)F)c4)n3)cn2)C1` (stereo not shown) [Example I-311, 3-tert-butyl-N-[[4-[2-[[1-(1-methylazetidin-3-yl)pyrazol-4-yl]amino]pyrimidin-4-yl]-2-(trifluoromethyl)phenyl]methyl]pyrrolidine-1-carboxamide], the IC50 was < 500 nM in test [1] and < 10 nM in test [2]. `COCCn1cc(Nc2nccc(-c3ccc4c(c3)CCCCC4NC(=O)N3CCC(C(C)(C)C)C3)n2)cn1` (stereo not shown) [Example I-186, 3-(tert-butyl)-N-(2-(2-((1-(2-methoxyethyl)-1H-pyrazol-4-yl)amino)pyrimidin-4-yl)-6,7,8,9-tetrahydro-5H-benzo[7]annulen-5-yl)pyrrolidine-1-carboxamide]: the IC50 in test [1] was < 500 nM; in test [2] it was < 10 nM. Turning to `CC(C)OC1CN(C(=O)NC2CCCCc3cc(-c4ccnc(Nc5cnn([C@@H]6CCOC6)c5)n4)ccc32)C1` (stereo partly drawn) [Example I-333, 3-isopropoxy-N-[2-[2-[[1-[(3R)-tetrahydrofuran-3-yl]pyrazol-4-yl]amino]pyrimidin-4-yl]-6,7,8,9-tetrahydro-5H-benzo[7]annulen-5-yl]azetidine-1-carboxamide], the IC50 in test [1] is < 500 nM; in test [2], < 10 nM. Turning to `COCCn1cc(Nc2nccc(-c3ccc(CNC(=O)N4CC(OC(C)(C)C)C4)c(C(F)(F)F)c3)n2)cn1` [Example I-204, 3-(tert-butoxy)-N-(4-(2-((1-(2-methoxyethyl)-1H-pyrazol-4-yl)amino)pyrimidin-4-yl)-2-(trifluoromethyl)benzyl)azetidine-1-carboxamide], the IC50 in test [1] was < 500 nM; in test [2] it was < 10 nM. For `Cc1cc(-c2cc(Nc3cc4n(n3)CCN(C)C4)ncn2)ccc1CNC(=O)N1CC(OC(C)C)C1` [Example I-121, 3-isopropoxy-N-(2-methyl-4-(6-((5-methyl-4,5,6,7-tetrahydropyrazolo[1,5-a]pyrazin-2-yl)amino)pyrimidin-4-yl)benzyl)azetidine-1-carboxamide], the results for the IC50 in test [1] and in test [2] were < 500 nM and < 10 nM, respectively.

As to `Cn1cc(Nc2nccc(-c3ccc4c(c3)CCCCC4NC(=O)c3cnn(C(C)(C)C)c3)n2)cn1` (stereo not shown) [Example I-257, 1-tert-butyl-N-[2-[2-[(1-methylpyrazol-4-yl)amino]pyrimidin-4-yl]-6,7,8,9-tetrahydro-5H-benzo[7]annulen-5-yl]pyrazole-4-carboxamide], the 50% inhibitory concentration (IC50) in test [1] is < 500 nM.
